# Measurements taken from patent publication US7902373B2 (Pfizer Inc, priority 2006, dated 2011).
# Molecular target: human recombinant H-PGDS (Homo sapiens, UniProt O60760)
# Assay: Fluorescence intensity h-PGDS TBA enzyme assay
# Assay type: biochemical
# Settings: Examples up to 622 (and 3a, 3b)
# human recombinant H-PGDS, sequence (O60760 whole entry): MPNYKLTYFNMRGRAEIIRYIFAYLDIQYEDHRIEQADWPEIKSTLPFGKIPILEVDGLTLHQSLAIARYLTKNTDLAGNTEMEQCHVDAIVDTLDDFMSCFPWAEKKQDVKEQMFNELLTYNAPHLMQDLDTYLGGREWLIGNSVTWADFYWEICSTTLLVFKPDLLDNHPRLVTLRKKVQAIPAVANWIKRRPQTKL
row,SMILES,IC50 [nM]
1,"COc1ccc(CN2CCC(NC(=O)c3ccc(-c4cccc(F)c4)nc3)CC2)cc1C [Example 235, 6-(3-Fluorophenyl)-N-[1-(4-methoxy-3-methylbenzyl)piperidin-4-yl]nicotinamide]",1.98
2,"CC(C)(CNC(=O)OC(C)(C)C)CN1CCC(NC(=O)c2ccc(-c3cccc(F)c3)nc2)CC1 [Example 347, tert-Butyl {3-[4-({[6-(3-fluorophenyl)pyridin-3-yl]carbonyl}amino)piperidin-1-yl]-2,2-dimethylpropyl}carbamate]",0.578
3,"COc1ccnc(N2CCC(NC(=O)c3ccc(-c4cccc(F)c4)nc3)CC2)c1C#N [Example 67, N-[1-(3-Cyano-4-methoxypyridin-2-yl)piperidin-4-yl]-6-(3-fluorophenyl)nicotinamide]",0.955
4,"O=C(NC1CCN(c2ncnc3c2ncn3CCN2CCCCC2)CC1)c1ccc(-c2cccc(F)c2)nc1 [Example 107, 6-(3-Fluorophenyl)-N-{1-[9-(2-piperidin-1-ylethyl)-9H-purin-6-yl]piperidin-4-yl}nicotinamide]",0.804
5,"Cc1cn(CCN2CCC(NC(=O)c3ccc(-c4cccc(F)c4)nc3)CC2)c(=O)[nH]c1=O [Example 180, 6-(3-Fluorophenyl)-N-{1-[2-(5-methyl-2,4-dioxo-34-dihydropyrimidin-1(2H)-yl)ethyl]piperidin-4-yl}nicotinamide]",0.372
6,"Cc1cccc(-n2ccnc2CN2CCC(NC(=O)c3ccc(-c4cccc(F)c4)nc3)CC2)c1 [Example 435, 6-(3-Fluorophenyl)-N-(1-{[1-(3-methylphenyl)-1H-imidazol-2-yl]methyl}piperidin-4-yl)nicotinamide]",0.908
7,"O=C(NC1CCN(Cc2coc3ccccc23)CC1)c1ccc(-c2cccc(F)c2)nc1 [Example 518, N-[1-(1-Benzofuran-3-ylmethyl)piperidin-4-yl]-6-(3-fluorophenyl)nicotinamide]",0.96
8,"O=C(NC1CCN(Cc2nc(-c3cccc(F)c3)cs2)CC1)c1ccc(-c2cccc(F)c2)nc1 [Example 408, 6-(3-Fluorophenyl)-N-(1-{[4-(3-fluorophenyl)-1,3-thiazol-2-yl]methyl}piperidin-4-yl)nicotinamide]",61.9
9,"COc1ccc2c(c1)CCC2N1CCC(NC(=O)c2ccc(-c3cccc(F)c3)nc2)CC1 (stereo not drawn) [Example 528, 6-(3-Fluorophenyl)-N-[1-(5-methoxy-2,3-dihydro-1H-inden-1-yl)piperidin-4-yl]nicotinamide]",2.49
10,"CC(CCC#N)(CN1CCC(NC(=O)c2ccc(-c3cccc(F)c3)nc2)CC1)c1ccccc1 (stereo not drawn) [Example 293, N-[1-(4-Cyano-2-methyl-2-phenylbutyl)piperidin-4-yl]-6-(3-fluorophenyl)nicotinamide]",0.592
11,"Cc1nn(C)c(Cl)c1CN1CCC(NC(=O)c2ccc(-c3cccc(F)c3)nc2)CC1 [Example 319, N-{1-[(5-Chloro-1,3-dimethyl-1H-pyrazol-4-yl)methyl]piperidin-4-yl}-6-(3-fluorophenyl)nicotinamide]",0.384
12,"Nc1ncc(CN2CCC(NC(=O)c3ccc(-c4cccc(F)c4)nc3)CC2)cn1 [Example 368, N-{1-[(2-Aminopyrimidin-5-yl)methyl]piperidin-4-yl}-6-(3-fluorophenyl)nicotinamide]",2.03
13,"C=CCN(C)C(=O)c1ccc(N2CCC(NC(=O)c3ccc(-c4cccc(F)c4)nc3)CC2)nc1 [Example 563, N-Allyl-6-[4-({[6-(3-fluorophenyl)pyridin-3-yl]carbonyl}amino)piperidin-1-yl]-N-methylnicotinamide]",0.981
14,"CCCn1cc(CN2CCC(NC(=O)c3ccc(-c4cccc(F)c4)nc3)CC2)c(C)n1 [Example 427, 6-(3-Fluorophenyl)-N-{1-[(3-methyl-1-propyl-1H-pyrazol-4-yl)methyl]piperidin-4-yl}nicotinamide]",0.656
15,"O=C(NC1CCN(Cc2ccc(OCCO)cc2)CC1)c1ccc(-c2cccc(F)c2)nc1 [Example 258, 6-(3-Fluorophenyl)-N-{1-[4-(2-hydroxyethoxy)benzyl]piperidin-4-yl}nicotinamide]",1.24
16,"CC(C)N1CCC(NC(=O)c2ccc(-c3cccc(F)c3)nc2)CC1 [Example 30, 6-(3-Fluorophenyl)-N-(1-isopropylpiperidin-4-yl)nicotinamide]",3.79
17,"CCOc1cccc(-n2nnnc2N2CCC(NC(=O)c3ccc(-c4cccc(F)c4)nc3)CC2)c1 [Example 103, N-{1-[1-(3-Ethoxyphenyl)-1H-tetrazol-5-yl]piperidin-4-yl}-6-(3-fluorophenyl)nicotinamide]",2.15
18,"O=C(NC1CCN(Cc2ccc(-c3ccn[nH]3)cc2)CC1)c1ccc(-c2cccc(F)c2)nc1 [Example 488, 6-(3-Fluorophenyl)-N-{1-[4-(1H-pyrazol-5-yl)benzyl]piperidin-4-yl}nicotinamide]",0.489
19,"Cc1sc(CN2CCC(NC(=O)c3ccc(-c4cccc(F)c4)nc3)CC2)nc1-c1ccccc1 [Example 412, 6-(3-Fluorophenyl)-N-{1-[(5-methyl-4-phenyl-13-thiazol-2-yl)methyl]piperidin-4-yl}nicotinamide]",4.12
20,"CC(C)(C)OC(=O)N1C[C@H](O)[C@H](NC(=O)c2ccc(-c3cccc(F)c3)nc2)C1 (relative stereo) [Example 609, cis-tert-Butyl 3-({[6-(3-fluorophenyl)pyridin-3-yl]carbonyl}amino)-4-hydroxypyrrolidine-1-carboxylate]",5.43

row,SMILES,IC50 [nM]
1,"Cn1ncc(CN2CCC(NC(=O)c3ccc(-c4cccc(F)c4)nc3)CC2)c1-c1ccc(F)cc1 [Example 500, 6-(3-Fluorophenyl)-N-(1-{[5-(4-fluorophenyl)-1-methyl-1H-pyrazol-4-yl]methyl}piperidin-4-yl)nicotinamide]",0.633
2,"CCCCCN1CCC(NC(=O)c2ccc(-c3cccc(F)c3)nc2)CC1 [Example 325, 6-(3-Fluorophenyl)-N-(1-pentylpiperidin-4-yl)nicotinamide]",4.01
3,"COc1cccc(-c2ccnc(N3CCC(NC(=O)c4ccc(-c5cccc(F)c5)nc4)CC3)n2)c1 [Example 177, 6-(3-Fluorophenyl)-N-{1-[4-(3-methoxyphenyl)pyrimidin-2-yl]piperidin-4-yl}nicotinamide]",68.4
4,"Cn1ccnc1-c1nc(N2CCC(NC(=O)c3ccc(-c4cccc(F)c4)nc3)CC2)nc2ccccc12 [Example 62, 6-(3-Fluorophenyl)-N-{1-[4-(1-methyl-1H-imidazol-2-yl)quinazolin-2-yl]piperidin-4-yl}nicotinamide]",3.33
5,"CCC(CO)n1cnc2c(N3CCC(NC(=O)c4ccc(-c5cccc(F)c5)nc4)CC3)ncnc21 (stereo not drawn) [Example 90, 6-(3-Fluorophenyl)-N-(1-{9-[1-(hydroxymethyl)propyl]-9H-purin-6-yl}piperidin-4-yl)nicotinamide]",0.305
6,"O=C(NC1CCN(c2ncnc3ncccc23)CC1)c1ccc(-c2cccc(F)c2)nc1 [Example 63, 6-(3-Fluorophenyl)-N-(1-pyrido[2,3-d]pyrimidin-4-ylpiperidin-4-yl)nicotinamide]",0.183
7,"COc1cccc(-c2csc(CN3CCC(NC(=O)c4ccc(-c5cccc(F)c5)nc4)CC3)n2)c1 [Example 409, 6-(3-Fluorophenyl)-N-(1-{[4-(3-methoxyphenyl)-1,3-thiazol-2-yl]methyl}piperidin-4-yl)nicotinamide]",2.25
8,"COc1cc(CN2CCC(NC(=O)c3ccc(-c4cccc(F)c4)nc3)CC2)cc(OC)c1 [Example 297, N-[1-(3,5-Dimethoxybenzyl)piperidin-4-yl]-6-(3-fluorophenyl)nicotinamide]",1.25
9,"N#Cc1ccc(CN2CCC(NC(=O)c3ccc(-c4cccc(F)c4)nc3)CC2)cc1 [Example 227, N-[1-(4-Cyanobenzyl)piperidin-4-yl]-6-(3-fluorophenyl)nicotinamide]",0.815
10,"O=C(NC1CCN(c2ncc3c(n2)CCOC3)C1)c1ccc(-c2cccc(F)c2)nc1 (stereo not drawn) [Example 590, N-[1-(7,8-Dihydro-5H-pyrano[43-d]pyrimidin-2-yl)pyrrolidin-3-yl]-6-(3-fluorophenyl)nicotinamide]",0.74
11,"CS(=O)(=O)Nc1cccc(CN2CCC(NC(=O)c3ccc(-c4cccc(F)c4)nc3)CC2)c1 [Example 501, 6-(3-Fluorophenyl)-N-(1-{3-[(methylsulfonyl)amino]benzyl}piperidin-4-yl)nicotinamide]",0.432
12,"O=C(NC1CCN(Cc2cccc(-c3cncnc3)c2)CC1)c1ccc(-c2cccc(F)c2)nc1 [Example 381, 6-(3-Fluorophenyl)-N-[1-(3-pyrimidin-5-ylbenzyl)piperidin-4-yl]nicotinamide]",0.0854
13,"O=C(NC1CCN(CC(F)(F)F)CC1)c1ccc(-c2ccccc2F)nc1 [Example 585, 6-(2-Fluorophenyl)-N-[1-(2,2,2-trifluoroethyl)piperidin-4-yl]nicotinamide]",0.734
14,"CCOc1cccc(CN2CCC(NC(=O)c3ccc(-c4cccc(F)c4)nc3)CC2)c1 [Example 291, N-[1-(3-Ethoxybenzyl)piperidin-4-yl]-6-(3-fluorophenyl)nicotinamide]",1.17
15,"CC(C)(C)CCN1CCC(NC(=O)c2ccc(-c3cccc(F)c3)nc2)CC1 [Example 298, N-[1-(3,3-Dimethylbutyl)piperidin-4-yl]-6-(3-fluorophenyl)nicotinamide]",0.939
16,"CC(C)Oc1ccc(CN2CCC(NC(=O)c3ccc(-c4cccc(F)c4)nc3)CC2)cc1CO [Example 428, 6-(3-Fluorophenyl)-N-{1-[3-(hydroxymethyl)-4-isopropoxybenzyl]piperidin-4-yl}nicotinamide]",0.926
17,"Cn1nccc1-c1ccc(CN2CCC(NC(=O)c3ccc(-c4cccc(F)c4)nc3)CC2)cc1 [Example 474, 6-(3-Fluorophenyl)-N-{1-[4-(1-methyl-1H-pyrazol-5-yl)benzyl]piperidin-4-yl}nicotinamide]",1.44
18,"O=C(NC1CCN(Cc2ccc(CN3CCOCC3)cc2)CC1)c1ccc(-c2cccc(F)c2)nc1 [Example 453, 6-(3-Fluorophenyl)-N-{1-[4-(morpholin-4-ylmethyl)benzyl]piperidin-4-yl}nicotinamide]",1.42
19,"CCCc1ncc(CN2CCC(NC(=O)c3ccc(-c4cccc(F)c4)nc3)CC2)cn1 [Example 441, 6-(3-Fluorophenyl)-N-{1-[(2-propylpyrimidin-5-yl)methyl]piperidin-4-yl}nicotinamide]",2.58
